Reference: the kinase profiling compilation of Christmann-Franck et al. (2016)

Columns and labels:
Test in all cases: KINOMEscan competition binding
Details in all cases: compound 1.0 µM
PHKG1 (human) = PHKG1 (human) (UniProt Q16816)
NUAK1 (human) = NUAK1 (human) (UniProt O60285)
RPS6KA4 KD1 (human) = RPS6KA4 KD1 (human) (UniProt O75676)
MAPK12 (human) = MAPK12 (human) (UniProt P53778)
[1] = tested on: EGFR (human), P00533 [L858R]
NEK5 (human) = NEK5 (human) (UniProt Q6P3R8)
PIK3CD (human) = PIK3CD (human) (UniProt O00329)
MAP3K9 (human) = MAP3K9 (human) (UniProt P80192)
ERN1 (human) = ERN1 (human) (UniProt O75460)
VRK2 (human) = VRK2 (human) (UniProt Q86Y07)
FGR (human) = FGR (human) (UniProt P09769)
EGFR (human) = EGFR (human) (UniProt P00533)
CAMKK2 (human) = CAMKK2 (human) (UniProt Q96RR4)
BMPR2 (human) = BMPR2 (human) (UniProt Q13873)
MINK1 (human) = MINK1 (human) (UniProt Q8N4C8)
MYO3B (human) = MYO3B (human) (UniProt Q8WXR4)
MAPK8 (human) = MAPK8 (human) (UniProt P45983)
Chain of MAPK8 (human) (P45983 whole entry, looked up): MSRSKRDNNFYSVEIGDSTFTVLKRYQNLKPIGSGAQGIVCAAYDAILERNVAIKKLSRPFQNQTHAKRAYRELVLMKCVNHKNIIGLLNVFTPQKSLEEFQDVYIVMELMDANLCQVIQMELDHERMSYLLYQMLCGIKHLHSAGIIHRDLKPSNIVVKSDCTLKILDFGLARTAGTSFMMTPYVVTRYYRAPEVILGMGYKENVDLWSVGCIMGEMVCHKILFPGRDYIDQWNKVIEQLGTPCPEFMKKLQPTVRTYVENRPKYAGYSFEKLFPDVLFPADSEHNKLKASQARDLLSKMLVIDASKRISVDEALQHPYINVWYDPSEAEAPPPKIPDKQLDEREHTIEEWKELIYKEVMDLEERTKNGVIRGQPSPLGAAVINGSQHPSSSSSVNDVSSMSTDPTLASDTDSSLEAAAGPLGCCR

CSF1R (human) = CSF1R (human) (UniProt P07333)
BMPR1A (human) = BMPR1A (human) (UniProt P36894)
Chain of BMPR1A (human) (P36894 whole entry, looked up): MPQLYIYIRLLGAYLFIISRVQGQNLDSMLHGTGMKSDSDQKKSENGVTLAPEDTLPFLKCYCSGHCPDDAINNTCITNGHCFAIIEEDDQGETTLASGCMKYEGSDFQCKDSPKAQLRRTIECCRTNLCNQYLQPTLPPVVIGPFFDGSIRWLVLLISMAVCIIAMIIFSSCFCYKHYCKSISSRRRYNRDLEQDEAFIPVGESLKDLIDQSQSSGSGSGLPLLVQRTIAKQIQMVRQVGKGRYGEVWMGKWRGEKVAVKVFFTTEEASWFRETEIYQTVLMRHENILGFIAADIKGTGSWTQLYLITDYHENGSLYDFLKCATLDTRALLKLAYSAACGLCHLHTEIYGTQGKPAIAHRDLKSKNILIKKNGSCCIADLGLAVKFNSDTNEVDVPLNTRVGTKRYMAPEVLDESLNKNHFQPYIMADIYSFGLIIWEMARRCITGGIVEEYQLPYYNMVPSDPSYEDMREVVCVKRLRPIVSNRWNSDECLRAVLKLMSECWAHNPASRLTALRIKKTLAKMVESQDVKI

MAPK6 (human) = MAPK6 (human) (UniProt Q16659)
CDC42BPG (human) = CDC42BPG (human) (UniProt Q6DT37)
TEC (human) = TEC (human) (UniProt P42680)
SBK1 (human) = SBK1 (human) (UniProt Q52WX2)
RIOK3 (human) = RIOK3 (human) (UniProt O14730)
CRK2 (P.falciparum) = CRK2 (P.falciparum) (UniProt P61075)
MELK (human) = MELK (human) (UniProt Q14680)
Chain of MELK (human) (Q14680 whole entry, looked up): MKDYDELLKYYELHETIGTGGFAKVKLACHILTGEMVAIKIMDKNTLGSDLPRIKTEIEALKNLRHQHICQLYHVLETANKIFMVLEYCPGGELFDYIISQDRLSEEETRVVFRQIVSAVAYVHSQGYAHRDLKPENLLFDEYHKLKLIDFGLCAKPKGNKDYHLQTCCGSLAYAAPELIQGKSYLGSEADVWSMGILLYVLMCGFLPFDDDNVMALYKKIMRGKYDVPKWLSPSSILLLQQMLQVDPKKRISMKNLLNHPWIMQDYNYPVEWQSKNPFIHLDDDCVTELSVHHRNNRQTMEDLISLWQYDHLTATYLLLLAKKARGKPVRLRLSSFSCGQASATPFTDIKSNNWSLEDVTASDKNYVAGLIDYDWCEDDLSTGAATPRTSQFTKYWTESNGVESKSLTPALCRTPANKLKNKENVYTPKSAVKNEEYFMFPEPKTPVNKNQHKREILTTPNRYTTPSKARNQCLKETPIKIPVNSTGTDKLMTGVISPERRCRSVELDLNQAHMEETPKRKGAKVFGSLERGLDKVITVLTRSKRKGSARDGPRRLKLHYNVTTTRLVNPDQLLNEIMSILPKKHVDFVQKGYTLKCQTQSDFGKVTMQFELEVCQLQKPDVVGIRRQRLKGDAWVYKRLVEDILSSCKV

ROCK1 (human) = ROCK1 (human) (UniProt Q13464)
MARK1 (human) = MARK1 (human) (UniProt Q9P0L2)
HUNK (human) = HUNK (human) (UniProt P57058)
Chain of HUNK (human) (P57058 whole entry, looked up): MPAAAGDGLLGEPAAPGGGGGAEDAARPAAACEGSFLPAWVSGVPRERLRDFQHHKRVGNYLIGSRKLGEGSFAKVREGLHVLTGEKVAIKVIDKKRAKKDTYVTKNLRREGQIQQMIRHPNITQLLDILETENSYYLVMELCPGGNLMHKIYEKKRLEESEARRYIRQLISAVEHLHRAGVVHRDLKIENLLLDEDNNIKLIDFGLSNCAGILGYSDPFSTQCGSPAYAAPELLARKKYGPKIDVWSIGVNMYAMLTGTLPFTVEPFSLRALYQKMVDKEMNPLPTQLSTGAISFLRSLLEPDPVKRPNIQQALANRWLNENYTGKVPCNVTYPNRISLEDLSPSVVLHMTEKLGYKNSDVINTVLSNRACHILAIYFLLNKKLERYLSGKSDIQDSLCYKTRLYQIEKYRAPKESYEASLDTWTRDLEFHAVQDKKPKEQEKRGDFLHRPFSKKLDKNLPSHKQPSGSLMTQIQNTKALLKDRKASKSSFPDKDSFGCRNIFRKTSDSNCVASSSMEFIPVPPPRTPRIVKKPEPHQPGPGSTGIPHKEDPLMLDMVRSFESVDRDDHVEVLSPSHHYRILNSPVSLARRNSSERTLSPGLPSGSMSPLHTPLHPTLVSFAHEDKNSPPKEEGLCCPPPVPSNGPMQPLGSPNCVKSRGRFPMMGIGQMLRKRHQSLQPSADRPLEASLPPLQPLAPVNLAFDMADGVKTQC

MLTK (human) = MLTK (human) (UniProt Q9NYL2)
CDKL3 (human) = CDKL3 (human) (UniProt Q8IVW4)
MAP2K1 (human) = MAP2K1 (human) (UniProt Q02750)
DCLK1 (human) = DCLK1 (human) (UniProt O15075)
MYO3A (human) = MYO3A (human) (UniProt Q8NEV4)
Chain of MYO3A (human) (Q8NEV4 whole entry, looked up): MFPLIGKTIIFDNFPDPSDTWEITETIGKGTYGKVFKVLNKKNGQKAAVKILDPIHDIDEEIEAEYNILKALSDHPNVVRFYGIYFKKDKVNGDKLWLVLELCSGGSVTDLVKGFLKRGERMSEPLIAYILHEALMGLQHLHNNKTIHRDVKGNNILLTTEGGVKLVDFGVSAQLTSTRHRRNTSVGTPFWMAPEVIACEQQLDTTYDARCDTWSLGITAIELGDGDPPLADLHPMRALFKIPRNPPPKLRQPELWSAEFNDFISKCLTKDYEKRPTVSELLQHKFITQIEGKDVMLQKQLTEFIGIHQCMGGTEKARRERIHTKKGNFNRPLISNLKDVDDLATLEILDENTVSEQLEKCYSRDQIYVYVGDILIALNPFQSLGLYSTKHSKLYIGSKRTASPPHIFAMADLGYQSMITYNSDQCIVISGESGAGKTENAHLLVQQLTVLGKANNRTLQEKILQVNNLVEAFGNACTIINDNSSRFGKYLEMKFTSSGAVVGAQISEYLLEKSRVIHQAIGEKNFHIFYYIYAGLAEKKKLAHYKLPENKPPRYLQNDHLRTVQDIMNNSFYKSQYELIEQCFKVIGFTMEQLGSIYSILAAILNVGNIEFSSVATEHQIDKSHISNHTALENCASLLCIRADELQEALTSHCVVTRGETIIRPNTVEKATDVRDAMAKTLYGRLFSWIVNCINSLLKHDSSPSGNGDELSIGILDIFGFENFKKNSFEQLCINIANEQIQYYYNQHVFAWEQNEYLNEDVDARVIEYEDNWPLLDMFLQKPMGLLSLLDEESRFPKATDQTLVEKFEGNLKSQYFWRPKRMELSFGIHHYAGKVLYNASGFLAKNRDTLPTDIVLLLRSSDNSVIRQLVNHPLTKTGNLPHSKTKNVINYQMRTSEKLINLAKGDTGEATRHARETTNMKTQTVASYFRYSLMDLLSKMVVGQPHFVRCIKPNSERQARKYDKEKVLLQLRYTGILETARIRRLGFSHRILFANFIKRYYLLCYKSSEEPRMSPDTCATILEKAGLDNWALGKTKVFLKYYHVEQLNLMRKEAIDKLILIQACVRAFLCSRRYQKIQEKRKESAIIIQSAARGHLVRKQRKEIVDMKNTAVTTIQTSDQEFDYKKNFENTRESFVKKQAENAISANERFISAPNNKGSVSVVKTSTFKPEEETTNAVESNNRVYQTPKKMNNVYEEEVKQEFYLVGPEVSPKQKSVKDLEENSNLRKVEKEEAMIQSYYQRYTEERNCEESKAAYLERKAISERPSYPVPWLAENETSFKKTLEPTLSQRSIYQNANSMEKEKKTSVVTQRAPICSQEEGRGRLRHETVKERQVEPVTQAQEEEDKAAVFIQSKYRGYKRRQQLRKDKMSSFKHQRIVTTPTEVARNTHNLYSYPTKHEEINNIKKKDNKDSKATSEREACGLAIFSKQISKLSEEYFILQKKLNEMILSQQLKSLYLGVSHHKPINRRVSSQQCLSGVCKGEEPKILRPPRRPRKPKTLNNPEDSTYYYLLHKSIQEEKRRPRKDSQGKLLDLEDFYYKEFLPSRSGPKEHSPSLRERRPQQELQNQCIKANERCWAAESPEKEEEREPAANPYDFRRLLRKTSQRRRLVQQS

MAPK13 (human) = MAPK13 (human) (UniProt O15264)
INSR (human) = INSR (human) (UniProt P06213)
STK25 (human) = STK25 (human) (UniProt O00506)
MAPK1 (human) = MAPK1 (human) (UniProt P28482)
NLK (human) = NLK (human) (UniProt Q9UBE8)
MAPKAPK5 (human) = MAPKAPK5 (human) (UniProt Q8IW41)
RIOK1 (human) = RIOK1 (human) (UniProt Q9BRS2)
FYN (human) = FYN (human) (UniProt P06241)
[2] = tested on: FLT3 (human), P36888 [N841I]

Chain of MAPK12 (human) (P53778 whole entry, looked up): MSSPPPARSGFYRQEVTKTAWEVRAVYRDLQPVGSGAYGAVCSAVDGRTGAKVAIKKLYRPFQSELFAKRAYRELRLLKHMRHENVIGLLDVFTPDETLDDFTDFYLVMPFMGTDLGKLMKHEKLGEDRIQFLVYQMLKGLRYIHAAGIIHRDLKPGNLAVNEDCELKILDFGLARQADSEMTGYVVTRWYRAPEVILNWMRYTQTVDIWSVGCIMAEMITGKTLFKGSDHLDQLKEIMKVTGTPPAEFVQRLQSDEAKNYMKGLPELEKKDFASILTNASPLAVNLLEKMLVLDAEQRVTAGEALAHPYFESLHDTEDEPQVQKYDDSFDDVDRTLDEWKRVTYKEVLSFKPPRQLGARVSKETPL
Chain of NUAK1 (human) (O60285 whole entry, looked up): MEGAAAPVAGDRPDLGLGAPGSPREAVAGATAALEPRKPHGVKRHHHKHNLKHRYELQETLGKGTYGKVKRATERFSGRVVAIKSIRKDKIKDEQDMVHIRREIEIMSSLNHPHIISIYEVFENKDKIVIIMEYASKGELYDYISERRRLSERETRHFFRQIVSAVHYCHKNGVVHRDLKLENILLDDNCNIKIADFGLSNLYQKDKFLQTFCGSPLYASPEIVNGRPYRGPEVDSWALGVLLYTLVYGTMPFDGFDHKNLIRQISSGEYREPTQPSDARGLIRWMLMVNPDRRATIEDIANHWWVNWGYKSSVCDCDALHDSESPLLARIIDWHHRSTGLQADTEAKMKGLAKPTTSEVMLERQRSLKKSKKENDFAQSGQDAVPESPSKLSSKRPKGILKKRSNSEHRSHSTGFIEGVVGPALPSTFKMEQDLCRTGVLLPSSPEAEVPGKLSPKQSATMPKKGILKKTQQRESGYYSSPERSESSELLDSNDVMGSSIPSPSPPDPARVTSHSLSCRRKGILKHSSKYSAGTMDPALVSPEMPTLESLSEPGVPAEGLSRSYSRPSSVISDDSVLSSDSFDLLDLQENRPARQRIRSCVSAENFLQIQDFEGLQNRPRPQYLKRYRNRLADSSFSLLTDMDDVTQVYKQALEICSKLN

Cc1cc(NC(=O)c2cccc(NC(=O)/C=C/CN(C)C)c2)ccc1Nc1nccc(-c2cccnc2)n1
kinase still bound, per cent of control (PHKG1 (human)): 87% | kinase still bound, per cent of control (NUAK1 (human)): 100% | kinase still bound, per cent of control (RPS6KA4 KD1 (human)): 79% | kinase still bound, per cent of control (MAPK12 (human)): 100% | kinase still bound, per cent of control [1]: 100% | kinase still bound, per cent of control (NEK5 (human)): 92% | kinase still bound, per cent of control (PIK3CD (human)): 95% | kinase still bound, per cent of control (MAP3K9 (human)): 100% | kinase still bound, per cent of control (ERN1 (human)): 73% | kinase still bound, per cent of control (VRK2 (human)): 97% | kinase still bound, per cent of control (FGR (human)): 100% | kinase still bound, per cent of control (EGFR (human)): 100% | kinase still bound, per cent of control (CAMKK2 (human)): 93% | kinase still bound, per cent of control (BMPR2 (human)): 77% | kinase still bound, per cent of control (MINK1 (human)): 71% | kinase still bound, per cent of control (MYO3B (human)): 89% | kinase still bound, per cent of control (MAPK8 (human)): 0% | kinase still bound, per cent of control (CSF1R (human)): 8.6% | kinase still bound, per cent of control (BMPR1A (human)): 100% | kinase still bound, per cent of control (MAPK6 (human)): 37% | kinase still bound, per cent of control (CDC42BPG (human)): 86% | kinase still bound, per cent of control (TEC (human)): 100% | kinase still bound, per cent of control (SBK1 (human)): 96% | kinase still bound, per cent of control (RIOK3 (human)): 72% | kinase still bound, per cent of control (CRK2 (P.falciparum)): 90% | kinase still bound, per cent of control (MELK (human)): 71% | kinase still bound, per cent of control (ROCK1 (human)): 63% | kinase still bound, per cent of control (MARK1 (human)): 100% | kinase still bound, per cent of control (HUNK (human)): 53% | kinase still bound, per cent of control (MLTK (human)): 100% | kinase still bound, per cent of control (CDKL3 (human)): 100% | kinase still bound, per cent of control (MAP2K1 (human)): 94% | kinase still bound, per cent of control (DCLK1 (human)): 100% | kinase still bound, per cent of control (MYO3A (human)): 81% | kinase still bound, per cent of control (MAPK13 (human)): 100% | kinase still bound, per cent of control (INSR (human)): 14% | kinase still bound, per cent of control (STK25 (human)): 92% | kinase still bound, per cent of control (MAPK1 (human)): 99% | kinase still bound, per cent of control (NLK (human)): 70% | kinase still bound, per cent of control (MAPKAPK5 (human)): 74% | kinase still bound, per cent of control (RIOK1 (human)): 100% | kinase still bound, per cent of control (FYN (human)): 78% | kinase still bound, per cent of control [2]: 93%
